Reference: patent publication US20080269666A1, “Microneedles and Methods for Microinfusion” (GEORGIA TECH RESEARCH CORPORATION, priority 2005, published 2008)
Values belong to the compound of their own block, whether it stands above or below them.

Legend:
[1] = Fluorescence microscopy of skin distribution after microinjection into hairless rat skin; format: in vivo
Description: FIG. 17A-B are micrographs showing hairless rat skin microinjected in vivo with FITC-insulin. Histological sections are shown using brightfield microscopy with H&E staining (FIG. 17A) and fluorescence microscopy showing injection and distribution of insulin in the skin (FIG. 17B). Scale bar=100 μm. Single, hollow, glass microneedles were inserted into the back skin of anesthetized rats placed in a prone position or into human cadaver skin (2×2 cm^2) placed on a x-y stage. Compounds delivered included blue tissue-marking dye in PBS (20% v/v, Shandon, Pittsburg, Pa.), green-fluorescent calcein in PBS (10 μM-10 mM, Molecular Probes, Eugene, Oreg.). After microinfusion experiments, skin samples were preserved as described in Example 1. Histological sections of skin were examined by stereoscopic (SZX12, Olympus, Melville, N.Y.) and fluorescence microscopy (IX 70, Olympus). Images were recorded by a digital camera (Spot RT Slider camera, Model 231, Diagnostic Instruments, Sterling Heights, Mich.) and analyzed using image analysis software (Image Pro Plus, version 4.5, Media Cybernetics, Silver Spring, Md.). The volume of injected liquid was imaged in the skin for quantitative analysis using one of three different methods. […] During insulin delivery experiments, rats were anesthetized. […]

[2] = Effect of hyaluronidase on microneedle infusion flow rate into human cadaver skin in vitro; conditions: 200 U/ml hyaluronidase in sulforhodamine solution vs without; bevel-tip microneedle inserted 1080 μm; 138 kPa; ANOVA p≦0.01
Protocol: To measure flow rate into skin during microneedle infusion, a single microneedle was inserted into human cadaver skin to microinfuse sulforhodamine solution and the infusion flow rate was measured over time. As an aid to visualizing flow into skin, sulforhodamine-B dye (Molecular Probes, Eugene, Oreg.) was added to PBS, stirred, and filtered (0.2 μm pore size, Nalge Nunc International, Rochester, N.Y.) to make 1×10^−3 M sulforhodamine solution. […]
The flow rate of sulforhodamine solution microinjection was determined by following movement of the gas-liquid meniscus in the syringe reservoir over time with a digital video camera (DCR-TRV460, Sony, Tokyo, Japan) and image analysis software (Adobe Photoshop 7.0, Adobe Systems, San Jose, Calif.) after converting the captured movie into sequences of still images (Adobe Premiere 6.0, Adobe Systems). […]
The effect of hyaluronidase was determined by comparing to an infusion fluid containing 200 U/ml hyaluronidase prepared by mixing 3 ml of hyaluronidase solution (Vitrase™, 200 U/ml, ISTA Pharmaceuticals, Irvine, Calif.) with 7 mL of 1×10^−3 M sulforhodamine solution. […] Microinfusion flow rate was measured as a function of retraction distance during infusion in the absence (white bars) or presence (black bars) of hyaluronidase. Data are expressed as mean values (n≧3) with standard deviation bars. […]

diabetic hairless rats = test: Blood glucose in diabetic hairless rats after insulin microinfusion through a hollow microneedle; format: in vivo, rat
Protocol: During insulin delivery experiments, rats were anesthetized. Microneedle infusion was carried out as described in Example 4, using clinical insulin solution (100 U/ml, Humulin R, Eli Lilly, Indianapolis, Ind.), and FITC-labeled insulin in PBS (1 mg/ml, Sigma).
As a companion experiment, insulin was microinjected into the skin of diabetic hairless rats in vivo and blood glucose concentration was monitored over time. Microinjection was carried out via microneedle insertion to a depth of 500-800 μm and infusing for 30 min. The volume of insulin solution microinjected into diabetic rat skin was 5±1 μl over the 30-min infusion period. Over a 4.5-h monitoring period after infusion, blood glucose level dropped and then plateaued at approximately 25% below pre-treatment values. […] Data expressed as mean±SEM.
Recognizing that needle retraction can increase microinfusion, the insulin delivery experiment was repeated by inserting microneedles to the same initial depth in the skin and then retracting by 150-200 μm back toward the skin surface. […] The volume of insulin solution microinjected into diabetic rat skin after needle retraction was 29±12 μl over the 30-min infusion period. […]

Compound: O=C(O)CN(CC(=O)O)Cc1cc2c(cc1O)Oc1cc(O)c(CN(CC(=O)O)CC(=O)O)cc1C21OC(=O)c2ccccc21 [calcein]
distribution in skin after microinjection (fluorescence) ([1]; injection at a specific location within the dermis, histological sections): fluoresced more uniformly in both dermis and epidermis

Compound: fluorescently labeled insulin: FITC-labeled insulin in PBS (1 mg/ml, Sigma)
distribution in skin after microinjection (fluorescence) ([1]; rat, in vivo): distribute throughout the dermis

increase in infusion flow rate [2]: 7 fold
Compound: hyaluronidase

Compound: insulin
blood glucose level drop below pre-treatment values (diabetic hairless rats; microneedle inserted 500-800 μm, no retraction, 30-min infusion of 100 U/ml insulin solution (5±1 μl injected), 4.5-h monitoring after infusion, plateau): approximately 25%
blood glucose level drop below pre-treatment values (diabetic hairless rats; microneedle inserted to same depth then retracted 150-200 μm, 30-min infusion of 100 U/ml insulin solution (29±12 μl injected)): approximately 70%
